In BigSolDB 2.1:

Nc1cc([N+](=O)[O-])ccc1Cl
solubility (mole fraction)
Settings	273.15 K	278.15 K	283.15 K	288.15 K	293.15 K	298.15 K	303.15 K	308.15 K	313.15 K
in 1,4-dioxane	–	–	–	0.11	0.119	0.13	0.142	0.154	0.169
in 2-butanone	0.0877	0.0973	0.108	0.119	0.13	0.141	0.153	0.165	0.179
in NMP	0.155	0.161	0.166	0.173	0.179	0.186	0.193	0.201	0.209
in acetone	0.103	0.112	0.122	0.133	0.144	0.156	0.168	0.182	0.197
in acetonitrile	0.0222	0.0277	0.0342	0.0413	0.0495	0.0579	0.0671	0.077	0.0877
in ethanol	0.0097	0.0112	0.0129	0.0149	0.0173	0.0198	0.0227	0.0258	0.0297
in ethyl acetate	0.0765	0.0836	0.0915	0.0991	0.107	0.116	0.126	0.135	0.145
in isopropanol	0.0047	0.0059	0.0074	0.0091	0.0109	0.0132	0.0158	0.0188	0.0226
in methanol	0.0071	0.0085	0.01	0.0118	0.0141	0.0165	0.0193	0.0227	0.0263
in n-butanol	0.0055	0.0069	0.0086	0.0104	0.0128	0.0153	0.0182	0.0213	0.0252
in n-propanol	0.008	0.0094	0.011	0.0129	0.0152	0.0177	0.0209	0.0246	0.0283
in toluene	0.0118	0.0134	0.0153	0.0174	0.0199	0.0231	0.0268	0.0309	0.0352
